Results: US20130217702A1 (Richter Gedeon Nyrt., priority 2010, published 2013)
pIC50, pKi: −log10 of the molar value. Where two headings read alike, the source gives them in different places.

How the values were obtained:
[1] = biological target: T1, human recombinant bradykinin B1 receptor (Homo sapiens, UniProt P46663); assay: Human recombinant bradykinin B1 receptor competitive radioligand binding
T1 construct: host or cells: CHO cells, clone hB1-A5
T1 sequence (P46663 1-353): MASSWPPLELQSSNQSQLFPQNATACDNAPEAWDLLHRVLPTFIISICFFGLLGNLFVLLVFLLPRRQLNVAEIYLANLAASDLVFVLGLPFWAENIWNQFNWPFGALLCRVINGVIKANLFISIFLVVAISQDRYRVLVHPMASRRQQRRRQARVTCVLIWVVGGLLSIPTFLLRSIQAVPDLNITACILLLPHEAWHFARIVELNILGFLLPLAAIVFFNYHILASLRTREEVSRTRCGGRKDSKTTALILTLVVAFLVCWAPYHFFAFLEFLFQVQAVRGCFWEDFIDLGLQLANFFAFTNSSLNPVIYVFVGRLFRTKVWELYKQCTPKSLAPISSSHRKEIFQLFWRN
Description: Assessment of Ligand Binding Affinity to B1 and B2 Receptors In Vitro by Competitive Radioligand Binding Assay
Binding assays were carried out on human recombinant bradykinin) receptors (expressed in CHO cells, hB1-A5) according to the Euroscreen Technical Data Sheet (Cat.No.:ES-091). 20 μg protein/tube was incubated with [3,4-prolyl-3,4-^3H(N)]-[Des-Arg^10] Kallidin as radioligand. Non specific binding was determined in the presence of 10 μM Lys-des-Arg^9-Bradykinin. The final incubation volume was 250 μl. Samples were incubated for 15 min. at 25° C. then were rapidly vacuum filtered through GF/B filters presoaked for at least 1 h in 0.5% PEI. Radioactivity was determined by liquid scintillation spectroscopy.
The ligand displacement by the compounds was determined using a minimum of seven concentrations in triplicate, and experiments were repeated at least two times. The specific radioligand binding is defined as the difference between total binding and the non-specific binding determined in the presence of an excess of unlabelled ligand. Results are expressed as a percent inhibition of specific binding obtained in the presence of RGH-478 or reference drugs. IC50 values (i.e. concentration of compound giving 50% inhibition of specific binding) were calculated from concentration-displacement curves by sigmoidal fitting using GraphPad Prism Software 4.0. Ki values (i.e. inhibition constants) were calculated using the Cheng-Prusoff equation. KD was determined from the Scatchard plot. (Editor-in-chief: Enna, S. J. and Williams, M. Current protocols in pharmacology vol. 1. John Wiley & sons Inc., 1998)

[2] = biological target: T2, recombinant human B1 receptors (Homo sapiens, UniProt P46663); assay: Functional assay: antagonist potency by cytosolic calcium measurement (plate reader fluorimeter) in CHO-B1 cells, agonist LysDABK; format: cell-based
T2 construct: host or cells: CHO (CHO-B1)
T2 sequence (P46663 1-353): T1 sequence (P46663 1-353)
Description: Assessment of Antagonist Potency at B1 Receptors In Vitro by Measurement of Cytosolic Calcium Ion Concentration with a Plate Reader Fluorimeter in Cells Expressing Recombinant Human B1 Receptors
Chinese hamster ovary (CHO) cells stably expressing recombinant human B1 (CHO-B1, Euroscreen) receptors were cultured in Dulbecco's Modified Eagle's Medium (DMEM) containing 10% Fetal Calf Serum (FCS), 100 U/ml penicillin, 0.1 mg/ml streptomycin, 0.25 μg/ml amphotericin B, 1% Minimum Essential Medium Eagle (MEM), non essential amino acid solution, 600 μg/ml G418. Cells were kept at 37° C. in a humidified incubator in an atmosphere of 5% CO2/95% air and were passaged 1:4 three times a week. Cells were plated at 1.5−2.5×10^4 cell/well on standard 96-well microplates, measurements of cytosolic calcium ion concentration ([Ca^2+]i) were carried out 1-2 days after cell plating.
Measurements of [Ca^2+]i were carried out on CHO-B1 cells stably expressing human B1 receptors, respectively. Cells were grown in standard 96-well microplates and before the measurement were loaded with a fluorescent Ca^2+-sensitive dye, fluo-4/AM (2 μM): after removing the culture medium the dye was added to the cells (dissolved in assay buffer: 145 mM NaCl, 5 mM KCl, 2 mM MgCl2, 2 mM CaCl2, 10 mM HEPES, 20 mM D-glucose, 2 mM probenecid, 100 μl/well) and cells were incubated at 37° C. in a humidified incubator in an atmosphere of 5% CO2/95% air for 40-120 min. To stop dye loading cells were washed twice with assay buffer. After washing, various concentrations of the test compounds (diluted in extracellular medium from a DMSO stock solution, final DMSO concentration was <0.1%) or buffer were added to each well depending on the experimental setup. After incubation at 37° C. for 20-25 min. baseline and agonist-evoked changes of [Ca^2+]; were measured column by column with a plate reader fluorimeter (Fluoroskan Ascent, Labsystems). Excitation and detection of emission was carried out from the bottom of the plate. Filters used for Fluo-4: excitation filter 485 nm, emission filter 538 nm. The whole measurement process was performed at 37° C. and was controlled by custom software. Inhibitory potency of the test compounds was assessed by measuring the reduction in the agonist-evoked [Ca^2+]i-elevation in the presence of different concentrations of the compounds. The agonist was LysDABK for CHO-B1 cells. Agonist was applied at an EC80 concentration; the EC80-values were derived from daily determined dose-response curves. Fluorescence data were expressed as ΔF/F (fluorescence change normalized to baseline). All treatments on a single plate were measured in multiple wells. Data from all wells with the same treatment were averaged and the average values were used for analysis. Inhibitory potency of a compound at a single concentration point was expressed as percent inhibition of the control agonist response. Sigmoidal concentration-inhibition curves were fitted to the data (derived from at least three independent experiments) and IC50-values were determined as the concentration that produces half of the maximal inhibition caused by the compound.

[3] = hB1 expressed in CHO cells, [3H]-[Des-Arg10] Kallidin radioligand, read-out: B1 binding
[4] = CHO-B1 cells, inhibition of LysDABK (EC80)-evoked [Ca2+]i elevation, read-out: B1 func.

| SMILES | pKi [1, 3] | pIC50 [2, 4] | pKi ([1]; reference compounds, binding test, measured by the applicant, read-out: Ki) | pIC50 ([2]; reference compounds, functional test, measured by the applicant, read-out: IC50) |
| --- | --- | --- | --- | --- |
| Cc1ncc(C(=O)NC2(C(=O)NCc3ccc(-n4c(-c5noc(C)n5)c(Cl)c5ccccc54)cc3)CC2)cn1 [Example 185, 2-Methyl-pyrimidine-5-carboxylic acid (1-{4-[3-chloro-2-(5-methyl-[1,2,4]oxadiazol-3-yl)-indol-1-yl]-benzylcarbamoyl}-cyclopropyl)-amide] | > 7.70 | > 7.70 | – | – |
| CCc1cc(C(=O)NC2(C(=O)NCc3ccc(-n4c(-c5noc(C)n5)c(Cl)c5ccccc54)cc3)CC2)on1 [Example 123, 3-Ethyl-isoxazole-5-carboxylic acid (1-{4-[3-chloro-2-(5-methyl-[1,2,4]oxadiazol-3-yl)-indol-1-yl]-benzylcarbamoyl}-cyclopropyl)-amide] | > 7.70 | > 7.70 | – | – |
| Cc1nc(-c2cc3cc(Cl)ccc3n2-c2ccc(CNC(=O)C3(NC(=O)c4cncc(C(F)(F)F)c4)CC3)cc2)no1 [Example 128, N-(1-{4-[5-Chloro-2-(5-methyl-[1,2,4]oxadiazol-3-yl)-indol-1-yl]-benzylcarbamoyl}-cyclopropyl)-5-trifluoromethyl-nicotinamide] | > 7.70 | > 7.70 | – | – |
| Cc1nc(-c2c(Cl)c3cc(F)ccc3n2-c2ccc(CNC(=O)C3(NC(=O)c4cncc(C(F)(F)F)c4)CC3)cc2)no1 [Example 91, N-(1-{4-[3-Chloro-5-fluoro-2-(5-methyl-[1,2,4]oxadiazol-3-yl)-indol-1-yl]-benzylcarbamoyl}-cyclopropyl)-5-trifluoromethyl-nicotinamide] | > 7.70 | > 7.70 | – | – |
| Cn1nnc(-c2c(Cl)c3cc(F)ccc3n2-c2ccc(CNC(=O)C3(NC(=O)C(F)(F)F)CC3)cc2)n1 [Example 12, 1-(2,2,2-Trifluoro-acetylamino)-cyclopropanecarboxylic acid 4-[3-chloro-5-fluoro-2-(2-methyl-2H-tetrazol-5-yl)-indol-1-yl]-benzylamide] | > 7.70 | > 7.70 | – | – |
| COc1ccc2c(c1)cc(C#N)n2-c1ccc(CNC(=O)C2(NC(=O)c3cc(OC)no3)CC2)cc1 [Example 48, 3-Methoxy-isoxazole-5-carboxylic acid {1-[4-(2-cyano-5-methoxy-indol-1-yl)-benzylcarbamoyl]-cyclopropyl}-amide] | > 7.70 | > 7.70 | – | – |
| Cc1cc(C(=O)NC2(C(=O)NCc3ccc(-n4c(-c5noc(C)n5)c(Cl)c5ccccc54)cc3)CC2)n[nH]1 [Example 152, 5-Methyl-1H-pyrazole-3-carboxylic acid (1-{4-[3-chloro-2-(5-methyl-[1,2,4]oxadiazol-3-yl)-indol-1-yl]-benzylcarbamoyl}-cyclopropyl)-amide] | > 7.70 | 7.00 to 7.70 | – | – |
| Cc1cnc(C(=O)NC2(C(=O)NCc3ccc(-n4c(-c5noc(C)n5)c(Cl)c5ccccc54)cc3)CC2)cn1 [Example 161, 5-Methyl-pyrazine-2-carboxylic acid (1-{4-[3-chloro-2-(5-methyl-[1,2,4]oxadiazol-3-yl)-indol-1-yl]-benzylcarbamoyl}-cyclopropyl)-amide] | > 7.70 | 7.00 to 7.70 | – | – |
| Cc1nnc(-c2c(Cl)c3ccccc3n2-c2ccc(CNC(=O)C3(NC(=O)c4cnc5ccccc5c4)CC3)cc2)o1 [Example 182, Quinoline-3-carboxylic acid (1-{4-[3-chloro-2-(5-methyl-[1,3,4]oxadiazol-2-yl)-indol-1-yl]-benzylcarbamoyl}-cyclopropyl)-amide] | > 7.70 | > 7.70 | – | – |
| COc1cc(C(=O)NC2(C(=O)NCc3ccc(-n4c(-c5noc(C)n5)cc5ccccc54)cc3)CC2)on1 [Example 195, 3-Methoxy-isoxazole-5-carboxylic acid (1-{4-[2-(5-methyl-[1,2,4]oxadiazol-3-yl)-indol-1-yl]-benzylcarbamoyl}-cyclopropyl)-amide] | > 7.70 | > 7.70 | – | – |
| Cn1nnc(-c2cc3ccccc3n2-c2ccc(CNC(=O)C3(NC(=O)C(F)(F)F)CC3)cc2)n1 [Example 36, 1-(2,2,2-Trifluoro-acetylamino)-cyclopropanecarboxylic acid 4-[2-(2-methyl-2H-tetrazol-5-yl)-indol-1-yl]-benzylamide] | > 7.70 | > 7.70 | – | – |
| COc1ccc2c(c1)c(Cl)c(-c1noc(C)n1)n2-c1ccc(CNC(=O)C2(NC(=O)c3cncc(C(F)(F)F)c3)CC2)cc1 [Example 130, N-(1-{4-[3-Chloro-5-methoxy-2-(5-methyl-[1,2,4]oxadiazol-3-yl)-indol-1-yl]-benzylcarbamoyl}-cyclopropyl)-5-trifluoromethyl-nicotinamide] | > 7.70 | > 7.70 | – | – |
| CCCN1C(=O)[C@H](NC(=O)Nc2ccc(N3CCC(N4CCCCC4)CC3)cc2)N=C(c2ccc(C)cc2)c2ccccc21 [N-[4-(,4′-bipiperidin)-1′-ylphenyl]-N′-[(3R)-2,3-dihydro-5-(4-methyl-phenyl)-2-oxo-1-propyl-1H-1,4-benzodiazepin-3-yl]-urea, reference compound] | – | – | 7.87 | 7.19 |
| COC(=O)c1c(Cl)c2ccccc2n1-c1ccc(CNC(=O)C2(NC(=O)C(F)(F)F)CC2)c(F)c1 [Example 54, 3-Chloro-1-[3-fluoro-4-({[1-(2,2,2-trifluoro-acetylamino)-cyclopropanecarbonyl]-amino}-methyl)-phenyl]-1H-indole-2-carboxylic acid methyl ester] | > 7.70 | > 7.70 | – | – |
| CSc1ncc(C(=O)NC2(C(=O)NCc3ccc(-n4c(-c5noc(C)n5)c(Cl)c5ccccc54)cc3)CC2)cn1 [Example 77, 2-Methylsulfanyl-pyrimidine-5-carboxylic acid (1-{4-[3-chloro-2-(5-methyl-[1,2,4]oxadiazol-3-yl)-indol-1-yl]-benzylcarbamoyl}-cyclopropyl)-amide] | > 7.70 | > 7.70 | – | – |
| Cc1nc(-c2c(Cl)c3ccccc3n2-c2ccc(CNC(=O)C3(NC(=O)c4cccc(F)c4)CC3)c(F)c2)no1 [Example 105, N-(1-{4-[3-Chloro-2-(5-methyl-[1,2,4]oxadiazol-3-yl)-indol-1-yl]-2-fluoro-benzylcarbamoyl}-cyclopropyl)-3-fluoro-benzamide] | > 7.70 | > 7.70 | – | – |
